# From patent EP0657176B1, “Composition containing a water-insoluble or slightly water-soluble compound with enhanced water-solubility” (priority 1993, dated 1995)
# Columns and labels:
# [1] = Water-solubility of phenytoin alone or combined with β-CyD-G2-COONa or β-CyD (Example 9)
# Experimental: (§4) Sodium6-O-cyclomaltoheptaosyl-(6→1)-O-α-D-glucosyl-(4→1)-O-α-D-glucuronate (β-CyD-G2-COONa)(75 mg) was dissolved in water (5 ml).
# [2] = Water-solubility of indomethacin alone or combined with β-CyD-G2-COONa or β-CyD (Example 11)
# Description: The results are in Table 11. Table 11
# [3] = Water-solubility of clofibrate alone or combined with β-CyD-G2-COONa or β-CyD (Example 5); assay type: physicochemical; conditions: in water; with β-CyD-G2-COONa or β-CyD 1:2 (molar ratio), lyophilized powder; as Example 1; read-out: solubilities of clofibrate
# Experimental: (§1) The antineoplastic agent 6-O-(N-chloroacetylcarbamoyl)fumagillol (100 mg) was dissolved in ethanol (4 ml). […] The aqueous solution was added to the ethanol solution and mixed with it with stirring. The resulting solution was lyophilized in vacuo to give powder. Water (1 ml) was added to the powder (100 mg) to obtain a homogeneous aqueous solution, i.e., a composition of the present invention.
# (§2) On the other hand, the antineoplastic agent alone was added to water, and the mixture was vigorously shaken at 25 °C for 4 hours and filtered through a membrane filter of 0.22 µm.
# (§3) The antineoplastic agent in the above homogeneous aqueous solution and filtrate was determined by high performance liquid chromatography (HPLC). As a result, the solubilities in Table 1 were obtained.
# Likewise, lyophilized powder was obtained from clofibrate and β-cyclodextrin (β-CyD) (clofibrate : β-CyD = 1:2 (molar ratio)). […]
# [4] = Water-solubility of griseofulvin alone or combined with β-CyD-G2-COONa or β-CyD (Example 12, milling, spectrophotometry); assay type: physicochemical; conditions: with β-CyD-G2-COONa or β-CyD 1:1 (molar ratio), shaken in tumbler pulverizer with a small amount of water, lyophilized, powder 100 mg + water 1 ml, alone: 25°C, 6 hours, read-out: solubilities of griseofulvin
# Experimental: Water (1 ml) was added to each powder (100 mg) thus obtained to obtain an aqueous solution thereof. On the other hand, griseofulvin alone was added to water, and the mixture was vigorously shaken at 25°C for 6 hours and filtered through a membrane filter of 0.22 µm.
# The griseofulvin in the above filtrate was determined by spectrophotometry (Shimadzu Corp., UV-240 spectrophotometer).
# [5] = Water-solubility of the antifungal agent alone or combined with β-CyD-G2-COONa or β-CyD (Example 4); assay type: physicochemical; conditions: triazolone antifungal agent in water; with β-CyD-G2-COONa or β-CyD 1:2 (molar ratio), lyophilized powder; as Example 1; read-out: solubilities of the antifungal agent
# Experimental: as §1, §2, §3
# Likewise, lyophilized powder was obtained from the antifungal agent and β-cyclodextrin (β-CyD)(the antifungal agent : β-CyD = 1:2 (molar ratio)). […]
# [6] = Water-solubility of flufenamic acid alone or combined with β-CyD-G2-COONa or β-CyD (Example 7); assay type: physicochemical; conditions: flufenamic acid about 6 mg; as Example 6 (cyclodextrin 75 mg in water 5 ml, 25°C, 8 hours)
# Experimental: as §4
# [7] = water, 8 h
# Description: The results are in Table 10. Table 10
# [8] = Water-solubility of testosterone alone or combined with β-CyD-G2-COONa or β-CyD (Example 8)
# Experimental: as §4
# [9] = Water-solubility of testosterone alone or combined with β-CyD-CH2CH(OH)-COONa or β-CyD (Example 15); assay type: physicochemical; conditions: testosterone about 4 mg, β-CyD-CH2CH(OH)-COONa or β-CyD 75 mg in water 5 ml, shaken at 25°C for 8 hours; ultraviolet spectrophotometer; read-out: solubilities of testosterone
# Experimental: The same operations were carried out using β-CyD instead of β-CyD-CH2CH(OH)-COONa or using testosterone alone. The concentration of testosterone dissolved in the resulting filtrate was determined with an ultraviolet spectrophotometer (Shimadzu Corp., UV-240).
# [10] = Water-solubility of testosterone alone or combined with α-CyD-G2-COONa or α-CyD (Example 14); assay type: physicochemical; conditions: testosterone about 4 mg, α-CyD-G2-COONa or α-CyD 75 mg in water 5 ml, shaken at 25°C for 8 hours; ultraviolet spectrophotometer; read-out: solubilities of testosterone
# Experimental: The same operations were carried out using α-cyclodextrin (α-CyD) instead of α-CyD-G2-COONa or using testosterone alone. The concentration of testosterone dissolved in the resulting filtrate was determined with an ultraviolet spectrophotometer (Shimadzu Corp., UV-240).
# [11] = Water-solubility of acetohexamide alone or combined with β-CyD-G2-COONa or β-CyD (Example 13); assay type: physicochemical; conditions: with β-CyD-G2-COONa or β-CyD 1:1 (molar ratio), as Example 12, powder 100 mg + water 1 ml; alone: 25 °C, 6 hours; ultraviolet spectrophotometer; read-out: solubilities of acetohexamide
# Experimental: Separately, powder was obtained by the same operation except using β-CyD instead of the above β-CyD-G2-COONa. Water (1 ml) was added to each powder (100 mg) thus obtained to dissolve it. On the other hand, acetohexamide alone was added to water, and the mixture was vigorously shaken at 25 °C for 6 hours and filtered through a membrane filter of 0.22 µm. The acetohexamide in the above filtrate was determined with an ultraviolet spectrophotometer (Shimadzu Corp., UV-240).
compound,measurement,setting,value
"O=C1NC(=O)C(c2ccccc2)(c2ccccc2)N1 [Phenytoin alone, phenytoin]",solubility at 8 h,[1],27 µg/mL
"COc1ccc2c(c1)c(CC(=O)O)c(C)n2C(=O)c1ccc(Cl)cc1 [Indomethacin alone, indomethacin]",solubility at 8 h,[2],23 µg/mL
"CCOC(=O)C(C)(C)Oc1ccc(Cl)cc1 [Clofibrate agent alone, clofibrate]",solubility,[3],82 µg/mL
"COC1=CC(=O)C[C@@H](C)[C@]12Oc1c(Cl)c(OC)cc(OC)c1C2=O [Griseofulvin alone, griseofulvin]",solubility,[4],23 µg/mL
"C[C@@H](n1ncn(-c2ccc(OCC(F)(F)C(F)F)cc2)c1=O)[C@](O)(Cn1cncn1)c1ccc(F)cc1F [Antifungal agent alone, 2-[(1R,2R)-2-(2,4-difluorophenyl)-2-hydroxy-1-methyl-3-(1H-1,2,4-triazol-1-yl)propyl]-4-[4-(2,2,3,3-tetrafluoropropoxy)phenyl]-3-(2H,4H)-1,2,4-triazolone]",solubility,[5],5 µg/mL
"O=C(O)c1ccccc1Nc1cccc(C(F)(F)F)c1 [Flufenamic acid alone, flufenamic acid]",solubilities of flufenamic acid,[6],0.074 mg/mL
vitamin K2 [Vitamin K2 alone],solubilities of vitamin K2,[7],0.0005 µg/mL
"C[C@]12CC[C@H]3[C@@H](CCC4=CC(=O)CC[C@@]43C)[C@@H]1CC[C@@H]2O [Testosterone alone, testosterone]",solubility at 8 h,[8],29 µg/mL
same,solubility at 8 h,[9],29 µg/mL
same,solubility at 8 h,[10],29 µg/mL
"CC(=O)c1ccc(S(=O)(=O)NC(=O)NC2CCCCC2)cc1 [Acetohexamide alone, acetohexamide]",solubility,[11],28.1 µg/mL
